Columns and labels:
CDK7/CycH/MNAT1 = CDK7/CycH/MNAT1 (Homo sapiens (Human), UniProt P50613); test: Biochemical assay for CDK7 (TR-FRET kinase assay); conditions: 60 min pre-incubation, 1 mM ATP; for IC50: read-out: IC50; for inhibition at 10 µM: read-out: % inhibition @ 10 μM
Method in brief: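 CDK7/CycH/MNAT1 (5 nM) was preincubated with compound for 60 min at room temperature, then reacted for 60 min with 100 nM ULight-MBP and 1 mM ATP in 1% DMSO. Irreversibility was probed with 20, 60 and 180 min preincubations.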

[1] = system: RNA polymerase II CTD phosphorylation (MDA-MB-231/NCI-H358 cells); test: Inhibition of RNA polymerase II CTD phosphorylation in cell western assay; type: cell-based; conditions: 4 hours incubation, phospho RNA Pol II Ser-5 or Ser-2
Method: 25000 cells (MDA-MB-231/NCI-H358) were seeded in 96 well black clear bottom plate incubated for overnight before addition of selected compound. 3 fold dilutions of selected compound diluted in DMSO starting from 10 μM, added to cells and incubated for 4 hours at 37° C., 5% CO2 incubator. Cells were washed once with 100 μl of phosphate buffered saline (sigma #P3813), then fixed with 100 μl/well of 4% Para formaldehyde for 60 min at room temperature, in dark. The cells were washed 3 times with 100 μl of wash buffer (PBS with 0.1% Triton-X-100), later blocked for 2 hours at room temperature in blocking buffer (5% BSA in PBST). Cells were stained overnight at 4° C. with Phospho RNA Pol II (S5) (Millipore #04-1572, Abcam #5131) or Phospho RNA Pol II (Ser-2), antibody (Bethyl labs #A300-654-A) in blocking buffer. Post incubation cells were washed with Delifia wash buffer (Perkin Elmer #4010-0010). Cells were treated with LANCE secondary antibodies (LANCE® Eu-W1024 perkin elmer #AD-0076 for phospho Ser-5 CTD RNA pol-II and Delfia Eu-N1 anti rabbit IgG Perkin elmer #AD0106 for phospho Ser-2 CTD RNA pol-II) for 2 hours in assay buffer (Perkin Elmer #1244-111), Cells were washed 3 times with Delfia wash buffer post incubation, Enhancement solution (Perkin Elmer #1244-105) added and incubated for 20 mins. Europium readings were taken in Victor-3 instrument. Cell normalization was done using Hoechst dye (0.5 μg/ml).
Selected compounds were screened in the above mentioned assay procedure. The EC50 values are summarised in the below table; wherein group “A” refers to an EC50 value of less than or equal to 1 μM, group “B” refers to EC50 value in range of 1 to 10 μM and group “C” refers to EC50 value of greater than 10 μM.

CDK7/CycH/MNAT1, sequence (P50613 whole entry): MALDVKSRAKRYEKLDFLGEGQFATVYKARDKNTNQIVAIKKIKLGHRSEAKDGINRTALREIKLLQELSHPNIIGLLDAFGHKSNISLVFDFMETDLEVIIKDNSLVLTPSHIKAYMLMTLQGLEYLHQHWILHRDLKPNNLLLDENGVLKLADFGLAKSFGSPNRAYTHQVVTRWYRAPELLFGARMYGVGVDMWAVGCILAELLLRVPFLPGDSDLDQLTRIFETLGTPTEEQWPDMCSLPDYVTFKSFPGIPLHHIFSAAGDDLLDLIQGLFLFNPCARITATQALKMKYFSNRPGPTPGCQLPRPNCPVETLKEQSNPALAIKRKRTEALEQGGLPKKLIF
CDK7/CycH/MNAT1, sequence (P51946 whole entry partner): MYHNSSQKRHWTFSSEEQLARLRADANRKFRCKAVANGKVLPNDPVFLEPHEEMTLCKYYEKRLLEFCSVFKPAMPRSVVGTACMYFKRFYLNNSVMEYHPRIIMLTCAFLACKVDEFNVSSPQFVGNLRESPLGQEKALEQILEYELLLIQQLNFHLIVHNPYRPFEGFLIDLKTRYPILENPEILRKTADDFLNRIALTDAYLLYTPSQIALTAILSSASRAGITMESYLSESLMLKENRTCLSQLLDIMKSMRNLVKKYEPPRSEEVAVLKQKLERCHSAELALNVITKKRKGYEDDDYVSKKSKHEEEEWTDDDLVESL
CDK7/CycH/MNAT1, sequence (P51948 whole entry partner): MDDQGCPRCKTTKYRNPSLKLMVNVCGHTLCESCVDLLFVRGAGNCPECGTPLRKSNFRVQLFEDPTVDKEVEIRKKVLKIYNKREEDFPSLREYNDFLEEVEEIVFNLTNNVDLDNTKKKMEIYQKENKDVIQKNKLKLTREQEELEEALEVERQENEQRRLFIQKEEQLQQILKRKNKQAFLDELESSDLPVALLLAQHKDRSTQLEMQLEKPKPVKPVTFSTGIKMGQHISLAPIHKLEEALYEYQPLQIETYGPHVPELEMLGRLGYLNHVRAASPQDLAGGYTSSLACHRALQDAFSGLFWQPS

| % inhibition @ 10 μM (CDK7/CycH/MNAT1; 10 μM compound) [%] | IC50 (CDK7/CycH/MNAT1) [nM] | EC50 [1] [nM] | inhibition at 10 µM (CDK7/CycH/MNAT1; 10 μM compound) [%] | SMILES |
| --- | --- | --- | --- | --- |
| 99 | < 300 | 1000 to 10000 | – | C=CC(=O)N1CCC(C(=O)Nc2cccc(CNc3nc(OC4CCN(C)CC4)nc4c(C(C)C)cnn34)c2)C1 (single isomer, unassigned) [Compound 110, 1-acryloyl-N-(3-(((8-isopropyl-2-((1-methylpiperidin-4-yl)oxy)pyrazolo[1,5-a][1,3,5]triazin-4-yl)amino)methyl)phenyl)pyrrolidine-3-carboxamide] |
| – | < 300 | ≤ 1000 | 100 | C=CC(=O)N1CC[C@H]1C(=O)Nc1cccc(CNc2nc(NC3CCOCC3)nc3c(C(C)C)cnn23)c1 [Compound 20, (S)-1-acryloyl-N-(3-(((8-isopropyl-2-((tetrahydro-2H-pyran-4-yl)amino)pyrazolo[1,5-a][1,3,5]triazin-4-yl)amino)methyl)phenyl)azetidine-2-carboxamide] |
| – | < 300 | ≤ 1000 | 96 | C=CC(=O)N1CCCCC1C(=O)Nc1cccc(CNc2nc(NC3CCOCC3)nc3c(C(C)C)cnn23)c1 (stereo not drawn) [Compound 21, 1-acryloyl-N-(3-(((8-isopropyl-2-((tetrahydro-2H-pyran-4-yl)amino)pyrazolo[1,5-a][1,3,5]triazin-4-yl)amino)methyl)phenyl)piperidine-2-carboxamide] |
| – | < 300 | ≤ 1000 | 98 | C=CC(=O)N1CCOCC1C(=O)Nc1cccc(CNc2nc(NC3CCOCC3)nc3c(C(C)C)cnn23)c1 (stereo not drawn) [Compound 24, 4-acryloyl-N-(3-(((8-isopropyl-2-((tetrahydro-2H-pyran-4-yl)amino)pyrazolo[1,5-a][1,3,5]triazin-4-yl)amino)methyl)phenyl)morpholine-3-carboxamide] |
| – | < 300 | 1000 to 10000 | 91 | C=CC(=O)N1CCC(C(=O)Nc2ccc(F)c(CNc3nc(NC4CCOCC4)nc4c(C(C)C)cnn34)c2)C1 (stereo not drawn) [Compound 32, 1-acryloyl-N-(4-fluoro-3-(((8-isopropyl-2-((tetrahydro-2H-pyran-4-yl)amino)pyrazolo[1,5-a][1,3,5]triazin-4-yl)amino)methyl)phenyl)pyrrolidine-3-carboxamide] |
| – | < 300 | 1000 to 10000 | 95 | C=CC(=O)N[C@H]1CC[C@@H](C(=O)Nc2cccc(CNc3nc(NC4CCOCC4)nc4c(C(C)C)cnn34)c2F)CC1 [Compound 38, (1,4-cis)-4-acrylamido-N-(2-fluoro-3-(((8-isopropyl-2-((tetrahydro-2H-pyran-4-yl)amino)pyrazolo[1,5-a][1,3,5]triazin-4-yl)amino)methyl)phenyl)cyclohexane-1-carboxamide] |
| – | < 300 | 1000 to 10000 | 98 | CC(C)c1cnn2c(NCc3cccc(NC(=O)C4CCN(C(=O)/C=C/CN(C)C)C4)c3)nc(NC3CCOCC3)nc12 (stereo not drawn) [Compound 69, (E)-1-(4-(dimethylamino)but-2-enoyl)-N-(3-(((8-isopropyl-2-((tetrahydro-2H-pyran-4-yl)amino)pyrazolo[1,5-a][1,3,5]triazin-4-yl)amino)methyl)phenyl)pyrrolidine-3-carboxamide] |
| – | < 300 | ≤ 1000 | 100 | C=CS(=O)(=O)N1CCCCC1C(=O)Nc1cccc(CNc2nc(NC3CCOCC3)nc3c(C(C)C)cnn23)c1 (stereo not drawn) [Compound 78, N-(3-(((8-isopropyl-2-((tetrahydro-2H-pyran-4-yl)amino)pyrazolo [1,5-a][1,3,5]triazin-4-yl)amino)methyl)phenyl)-1-(vinylsulfonyl)piperidine-2-carboxamide] |
| – | < 300 | ≤ 1000 | 96 | C=CC(=O)NC1(C(=O)Nc2cccc(CNc3nc(NC4CCOCC4)nc4c(C(C)C)cnn34)c2)CC1 [Compound 83, 1-acrylamido-N-(3-(((8-isopropyl-2-((tetrahydro-2H-pyran-4-yl)amino)pyrazolo[1,5-a][1,3,5]triazin-4-yl)amino)methyl)phenyl)cyclopropane-1-carboxamide] |
| – | < 300 | 1000 to 10000 | 99 | C=CC(=O)Nc1cn(C)nc1C(=O)Nc1cccc(CNc2nc(NC3CCOCC3)nc3c(C(C)C)cnn23)c1 [Compound 85, 4-acrylamido-N-(3-(((8-isopropyl-2-((tetrahydro-2H-pyran-4-yl)amino)pyrazolo[1,5-a][1,3,5]triazin-4-yl)amino)methyl)phenyl)-1-methyl-1H-pyrazole-3-carboxamide] |
| – | < 300 | 1000 to 10000 | 97 | C=CC(=O)N1CCC(C(=O)Nc2cccc(CNc3nc(OC4CCN(C)CC4)nc4c(CC)cnn34)c2)CC1 [Compound 88, 1-acryloyl-N-(3-(((8-ethyl-2-((1-methylpiperidin-4-yl)oxy)pyrazolo [1,5-a][1,3,5]triazin-4-yl)amino)methyl)phenyl)piperidine-4-carboxamide] |

Second part, the compound before the results:

| SMILES | % inhibition @ 10 μM (CDK7/CycH/MNAT1; 10 μM compound) [%] | IC50 (CDK7/CycH/MNAT1) [nM] | EC50 [1] [nM] | inhibition at 10 µM (CDK7/CycH/MNAT1; 10 μM compound) [%] |
| --- | --- | --- | --- | --- |
| C=CC(=O)N1CCCC(C(=O)Nc2cccc(CNc3nc(NC4CCOCC4)nc4c(C(C)C)cnn34)c2)C1 (stereo not drawn) [Compound 1, 1-acryloyl-N-(3-(((8-isopropyl-2-((tetrahydro-2H-pyran-4-yl)amino)pyrazolo[1,5-a][1,3,5]triazin-4-yl)amino)methyl)phenyl)piperidine-3-carboxamide] | – | 300 to 1000 | ≤ 1000 | 88 |
| C=CC(=O)N1CCC1C(=O)Nc1cccc(CNc2nc(NC3CCOCC3)nc3c(C(C)C)cnn23)c1 (stereo not drawn) [Compound 2, 1-acryloyl-N-(3-(((8-isopropyl-2-((tetrahydro-2H-pyran-4-yl)amino)pyrazolo[1,5-a][1,3,5]triazin-4-yl)amino)methyl)phenyl)azetidine-2-carboxamide] | – | < 300 | ≤ 1000 | 98 |
| C=CC(=O)N1CCCC1C(=O)Nc1cccc(CNc2nc(NC3CCOCC3)nc3c(C(C)C)cnn23)c1 (stereo not drawn) [Compound 3, 1-acryloyl-N-(3-(((8-isopropyl-2-((tetrahydro-2H-pyran-4-yl)amino)pyrazolo[1,5-a][1,3,5]triazin-4-yl)amino)methyl)phenyl)pyrrolidine-2-carboxamide] | – | < 300 | ≤ 1000 | 96 |
| C=CC(=O)N1CCC(C(=O)Nc2cccc(CNc3nc(NC4CCOCC4)nc4c(C(C)C)cnn34)c2)C1 (stereo not drawn) [Compound 4, 1-acryloyl-N-(3-(((8-isopropyl-2-((tetrahydro-2H-pyran-4-yl)amino)pyrazolo[1,5-a][1,3,5]triazin-4-yl)amino)methyl)phenyl)pyrrolidine-3-carboxamide] | – | < 300 | ≤ 1000 | 93 |
| C=CC(=O)N1CCCC(C(=O)Nc2cccc(CNc3nc(NC4CCN(C)CC4)nc4c(C(C)C)cnn34)c2)C1 (stereo not drawn) [Compound 8, 1-acryloyl-N-(3-(((8-isopropyl-2-((1-methylpiperidin-4-yl)amino)pyrazolo[1,5-a][1,3,5]triazin-4-yl)amino)methyl)phenyl)piperidine-3-carboxamide] | – | < 300 | ≤ 1000 | 96 |
| C=CC(=O)N1CCC(C(=O)Nc2cccc(CNc3nc(N[C@@H]4CCNC[C@H]4F)nc4c(C(C)C)cnn34)c2)C1 (stereo partly drawn) [Compound 14, 1-acryloyl-N-(3-(((2-(((3R,4R)-3-fluoropiperidin-4-yl)amino)-8-isopropylpyrazolo[1,5-a][1,3,5]triazin-4-yl)amino)methyl)phenyl)pyrrolidine-3-carboxamide] | – | < 300 | 1000 to 10000 | 97 |
| C=CC(=O)N1CCC(C(=O)Nc2cccc(CNc3nc(NC4CCCC(N)C4)nc4c(C(C)C)cnn34)c2)C1 (stereo not drawn) [Compound 15, 1-acryloyl-N-(3-(((2-((3-aminocyclohexyl)amino)-8-isopropylpyrazolo[1,5-a][1,3,5]triazin-4-yl)amino)methyl)phenyl)pyrrolidine-3-carboxamide] | – | < 300 | > 10000 | 98 |
| C=CC(=O)N1CC(C(=O)Nc2cccc(CNc3nc(NC4CCOCC4)nc4c(C(C)C)cnn34)c2)C1 [Compound 18, 1-acryloyl-N-(3-(((8-isopropyl-2-((tetrahydro-2H-pyran-4-yl)amino)pyrazolo[1,5-a][1,3,5]triazin-4-yl)amino)methyl)phenyl)azetidine-3-carboxamide] | – | < 300 | ≤ 1000 | 101 |
